Measured values: patent US8293481B2, “Biomarkers for chronic vascular dysfunction” (Mayo Foundation for Medical Education and Research, priority 2006, dated 2012)

Tests used:
Assay in all cases: Real-time PCR gene expression in aorta post MI
Type in all cases: in vivo, rat
[1] = test system: Cxcl12 (chemokine (C-X-C motif) ligand 12); details: 4 weeks post-infarction (increased at 2 weeks), FIG. 1
Description: (§1) After intubation, rats were ventilated continuously (room air) using a small animal ventilator (Model 683, Harvard Apparatus, Holliston, Mass.). A left lateral thoracotomy incision was made along the 5th intercostal space and after the pericardium was opened, the heart was exteriorized using a retention suture placed at the apex. The left anterior descending coronary artery (LAD) was ligated twice using 6-0 prolene suture (Ethicon, Cornelia, Ga.). After chest closure with running 3-0 vicryl suture (Ethicon), rats were put in a recovery chamber with a heating pad and warming light. The post-operative survival rate reached 80%. […] Rats were fed a standard diet of Teklad rodent feed (Harlan) ad libitum and kept on a 12:12 h light-dark cycle. Rats were sacrificed at designated time intervals of 2 weeks and 4 weeks after surgery. […] Isolation of total RNA: […] Surrounding peri-adventitial tissues, fat, and endothelium were then carefully cleaned away and removed. The remaining vascular smooth muscle was then frozen with liquid nitrogen, pulverized into fine powder, and resuspended in 600 μl of Buffer RLT with β-ME (10 μl β-ME: 1 ml Buffer RLT, Qiagen, Valencia, Calif.). The lysate was pipetted directly onto a QIAshredder spin column (Qiagen) placed in a 2 ml collection tube and centrifuged for 5 minutes at 14000 rpm, 4° C. The supernatant was transferred to a new microcentrifuge tube and 1 volume of 70% ethanol was added and mixed. The cleared lysate was then transferred to an RNeasy mini-column (Qiagen) placed in a 2 ml collection tube and spun for 15 seconds at ≧10,000 rpm, 4° C. The flow-through was discarded and 700 μl of Buffer RW1 (Qiagen) was added to the RNeasy column. After the column was spun for 15 seconds at ≧10,000 rpm (4° C.), it was transferred into a new 2 ml collection tube, washed, spun twice with 500 μl Buffer RPE (Qiagen), and eluted with 40 μl of RNase-free water using a microcentrifuge (≧10,000 rpm, 4° C.) for 1 minute. Final RNA samples were stored at -20° C. to prevent degradation. Confirmation of microarray result by quantitative real-time PCR: The remaining RNA from the aortic or portal vein RNA sample was quantitatively converted to single stranded cDNA using the High-Capacity cDNA Archive Kit (Applied Biosystems, Foster City, Calif.). Briefly, 50 μl of RNA sample was mixed with 50 μl of 2×RT master mix (10 μl of 10× Reverse Transcription Buffer, 4 μl of 25× dNTPs, 10 μl of 10× random primers, 5 μl of […] Reverse Transcriptase at 50 U/μl, 21 μl of RNase-free H2O) and pipetted into 0.2 ml MICROAMP® PCR Reaction Tubes with Caps (Applied Biosystems, Foster City, Calif.). Reverse transcription was performed using a thermal cycler (Eppendorf Mastercycler gradient) with incubation conditions set at 25° C. for 10 minutes followed by 37° C. for 120 minutes. The synthesized cDNA was then mixed with TAQMAN® Universal PCR Master Mix (2.5 μl of cDNA+47.5 μl of RNase-free H2O+50 μl of Master Mix) and loaded onto 384-Well micro fluid cards for quantitative real-time PCR (TAQMAN® Low Density Arrays, Applied Biosystems). This was done with customer-selected TAQMAN® Gene Expression Assays preloaded into each of the 384 wells. The 7900 HT Gene Expression Micro Fluid Card Configuration 2 (Applied Biosystems) with a total of 24 targets was used; 22 targets were selected to include the results from the microarray study, and the remaining two targets were controls GAPDH and 18S controls. For each cDNA sample, four replicates were analyzed for real-time PCR. After all ports of the Micro Fluidic Card were loaded with cDNA, it was spun for even distribution into the wells using a Sorvall Legend centrifuge (1 minute at 1200 rpm). The array was then run on the Applied Biosystems 7900HT Fast Real-time PCR System, and the data were analyzed using an Applied Biosystems RQ Manager Software (SDS 2.1). […]

[2] = test system: Fmr1 (fragile X mental retardation syndrome 1 homolog); details: 2 weeks post-infarction
Description: as §1

[3] = test system: IL-1β (interleukin 1 beta); details: 2 weeks post-infarction
Description: as §1

[4] = test system: MIR16 (membrane interacting protein of RGS16); details: 4 weeks post-infarction (increased at 2 weeks), FIG. 1
Description: as §1

Rock2 (Rho kinase 2) = details: 2 weeks post-infarction
Description: as §1

[5] = test system: Gls2 (glutaminase 2 (liver, mitochondrial)); details: 2 weeks post-infarction
Description: as §1

Taok1 (TAO kinase 1) = details: 2 weeks post-infarction
Description: as §1

[6] = test system: Baat (bile acid-Coenzyme A amino acid N-acyltransferase); details: 2 weeks post-infarction
Description: as §1

Agt (angiotensinogen) = details: 4 weeks post-infarction (increased at 2 weeks), FIG. 1
Description: as §1

[7] = test system: Raf1 (v-raf-1 murine leukemia viral oncogene homolog 1); details: 2 weeks post-infarction
Description: as §1

**Q.** With C[C@H](CS)C(=O)N1CCC[C@H]1C(=O)O [Captopril, 1-[(2S)-3-mercapto-2-methylpropionyl]-L-proline] as the molecule, how does the “Cxcl12 expression, captopril versus placebo” value [1] read?
**A.** difference disappeared

**Q.** And the “Fmr1 expression, placebo or captopril therapy” value [2]?
**A.** did not demonstrate any difference

**Q.** And the “IL1-β expression, placebo or captopril therapy” value [3]?
**A.** did not demonstrate any difference

**Q.** And the “MIR16 expression, captopril versus placebo” value [4]?
**A.** difference disappeared

**Q.** And the “Rock2 expression, placebo or captopril therapy” value (Rock2 (Rho kinase 2))?
**A.** did not demonstrate any difference

**Q.** What about the “Gls2 expression, placebo or captopril therapy” value [5] of the same molecule?
**A.** did not demonstrate any difference

**Q.** And the “Taok1 expression, placebo or captopril therapy” value (Taok1 (TAO kinase 1))?
**A.** did not demonstrate any difference

**Q.** And the “Baat expression, placebo or captopril therapy” value [6]?
**A.** did not demonstrate any difference

**Q.** What about the “Agt expression, captopril versus placebo” value (Agt (angiotensinogen)) of the same molecule?
**A.** difference disappeared

**Q.** And the “Raf1 expression, placebo or captopril therapy” value [7]?
**A.** did not demonstrate any difference
